Patent publication US4225586A, “Antibiotic SB-72310” (Takeda Chemical Industries, Ltd., priority 1978, dated 1980)
Counter-ions that a name gives are not always drawn.

Assays:
mice = test: Acute toxicity, intravenous; type: in vivo
Description: The acute toxicity of the sodium salt of Antibiotic SB-72310 is low, with no deaths being encountered when 500 mg/kg of the salt was administered to mice by the intravenous route.

[1] = Stability in aqueous solution; type: physicochemical
Description: 12. Stability: Stable in aqueous solution in the range of pH 3 to 7 at 60° C. for 10 minute heating; unstable over pH 8.5.
10. Stability: Stable in aqueous solution in the range of pH 3 to 7 at 60° C. for 10 minute heating; unstable over pH 8.5.

Solubility in solvents = type: physicochemical
gram-positive bacteria = test: Antibacterial activity against gram-positive bacteria; type: cell-based; settings: paper disk method, Table 2
Description: (§1) The biological characteristics of SB-72310 are as follows.
(§2) Antimicrobial spectra of SB-72310(Inhibition diameter (mm)
(§3) by paper disk method) (25 μl of test solution of 10 mg/ml
(§4) is absorbed in paper disks of 8 mm diameter)
(§5) Medium = Trypticasesoy-broth-agar

gram-negative bacteria = test: Antibacterial activity against gram-negative bacteria; type: cell-based; settings: paper disk method, Table 2
Description: as §1, §2, §3, §4, §5

[2] = test system: Serratia marcescens IFO 12648; test: Antimicrobial spectrum, paper disk method; type: cell-based; settings: IFO12648, 25 μl of 10 mg/ml in 8 mm paper disks, Trypticasesoy-broth-agar, read-out: Inhibition diameter
Description: as §1, §2, §3, §4, §5

[3] = test system: Salmonella typhimurium IFO 12529; test: Antimicrobial spectrum, paper disk method; type: cell-based; settings: Salmonella enterica, 25 μl of 10 mg/ml in 8 mm paper disks, Trypticasesoy-broth-agar, read-out: Inhibition diameter
Description: as §1, §2, §3, §4, §5

[4] = test system: Staphylococcus aureus FDA 209P; test: Antimicrobial spectrum, paper disk method; type: cell-based; settings: FDA209P, 25 μl of 10 mg/ml in 8 mm paper disks, Trypticasesoy-broth-agar, read-out: Inhibition diameter
Description: as §1, §2, §3, §4, §5

Sarcina lutea IFO 3232 = test: Antimicrobial spectrum, paper disk method; type: cell-based; settings: Micrococcus luteus, IFO3232, 25 μl of 10 mg/ml in 8 mm paper disks, Trypticasesoy-broth-agar, read-out: Inhibition diameter
Description: as §1, §2, §3, §4, §5

Bacillus cereus IFO 3466 = test: Antimicrobial spectrum, paper disk method; type: cell-based; settings: IFO3466, 25 μl of 10 mg/ml in 8 mm paper disks, Trypticasesoy-broth-agar, read-out: Inhibition diameter
Description: as §1, §2, §3, §4, §5

[5] = test system: Pseudomonas fluorescens IFO 3081; test: Antimicrobial spectrum, paper disk method; type: cell-based; settings: IFO3081, 25 μl of 10 mg/ml in 8 mm paper disks, Trypticasesoy-broth-agar, read-out: Inhibition diameter
Description: as §1, §2, §3, §4, §5

[6] = test system: Klebsiella pneumoniae IFO 3318; test: Antimicrobial spectrum, paper disk method; type: cell-based; settings: IFO3318, 25 μl of 10 mg/ml in 8 mm paper disks, Trypticasesoy-broth-agar, read-out: Inhibition diameter
Description: as §1, §2, §3, §4, §5

[7] = test system: Alcaligenes faecalis IFO 13111; test: Antimicrobial spectrum, paper disk method; type: cell-based; settings: IFO13111, 25 μl of 10 mg/ml in 8 mm paper disks, Trypticasesoy-broth-agar, read-out: Inhibition diameter
Description: as §1, §2, §3, §4, §5

[8] = test system: Bacillus subtilis IFO 3513; test: Antimicrobial spectrum, paper disk method; type: cell-based; settings: IFO3513, 25 μl of 10 mg/ml in 8 mm paper disks, Trypticasesoy-broth-agar, read-out: Inhibition diameter
Description: as §1, §2, §3, §4, §5

[9] = test system: Comamonas terrigena IFD 12685; test: Antimicrobial spectrum, paper disk method; type: cell-based; settings: IFD12685, 25 μl of 10 mg/ml in 8 mm paper disks, Trypticasesoy-broth-agar, read-out: Inhibition diameter
Description: as §1, §2, §3, §4, §5

[10] = test system: Proteus vulgaris IFO 3045; test: Antimicrobial spectrum, paper disk method; type: cell-based; settings: IFO3045, 25 μl of 10 mg/ml in 8 mm paper disks, Trypticasesoy-broth-agar, read-out: Inhibition diameter
Description: as §1, §2, §3, §4, §5

[11] = test system: Proteus mirabilis IFO 3849; test: Antimicrobial spectrum, paper disk method; type: cell-based; settings: IFO3849, 25 μl of 10 mg/ml in 8 mm paper disks, Trypticasesoy-broth-agar, read-out: Inhibition diameter
Description: as §1, §2, §3, §4, §5

[12] = test system: Escherichia coli NIHJ JC-2; test: Antimicrobial spectrum, paper disk method; type: cell-based; settings: NIHJJC2, 25 μl of 10 mg/ml in 8 mm paper disks, Trypticasesoy-broth-agar, read-out: Inhibition diameter
Description: as §1, §2, §3, §4, §5

[13] = Basicity, neutrality or acidity; type: physicochemical
[14] = aqueous solution, pH 3 to 7, 60° C., 10 minute heating

Row | Compound | Stability [1, 14] | Stability ([1]; over pH 8.5) | Solubility in solvents (Solubility in solvents; acetone) | Solubility in solvents (Solubility in solvents; benzene) | Solubility in solvents (Solubility in solvents; chloroform) | Solubility in solvents (Solubility in solvents; diethyl ether) | Solubility in solvents (Solubility in solvents; dimethylsulfoxide) | Solubility in solvents (Solubility in solvents; ethanol) | Solubility in solvents (Solubility in solvents; ethyl acetate) | Solubility in solvents (Solubility in solvents; hexane) | Solubility in solvents (Solubility in solvents; methanol) | Solubility in solvents (Solubility in solvents; petroleum ether) | Solubility in solvents (Solubility in solvents; pyridine) | Solubility in solvents (Solubility in solvents; water) | further results
1 | COC1(NC(=O)C(C)NC(=O)CCC(N)C(=O)O)CN(S(=O)(=O)O)C1=O (stereo not shown) [SB-72310 sodium salt] | Stable | unstable | Insoluble | Insoluble | Insoluble | Insoluble | soluble | sparingly soluble | Insoluble | Insoluble | sparingly soluble | Insoluble | sparingly soluble | readily soluble | Acute toxicity (mice): low; Deaths (mice; 500 mg/kg): no deaths
2 | COC1(NC(=O)C(C)NC(=O)CCC(N)C(=O)O)CN(S(=O)(=O)O)C1=O (stereo not shown) [SB-72310] | Stable | unstable | sparingly soluble | Insoluble | Insoluble | Insoluble | soluble | sparingly soluble | Insoluble | Insoluble | soluble | Insoluble | sparingly soluble | readily soluble | Activity against gram-positive bacteria (gram-positive bacteria): active; Activity against gram-negative bacteria (gram-negative bacteria): active; zone of inhibition at 10000 µg/mL [2]: 17 mm; zone of inhibition at 10000 µg/mL [3]: 18.5 mm; zone of inhibition at 10000 µg/mL [4]: 18.5 mm; zone of inhibition at 10000 µg/mL (Sarcina lutea IFO 3232): 23 mm; zone of inhibition at 10000 µg/mL (Bacillus cereus IFO 3466): 14.5 mm; zone of inhibition at 10000 µg/mL [5]: 12.5 mm; zone of inhibition at 10000 µg/mL [6]: 12.5 mm; zone of inhibition at 10000 µg/mL [7]: 23 mm; zone of inhibition at 10000 µg/mL [8]: 22 mm; zone of inhibition at 10000 µg/mL [9]: 25 mm; zone of inhibition at 10000 µg/mL [10]: 18 mm; zone of inhibition at 10000 µg/mL [11]: 19 mm; zone of inhibition at 10000 µg/mL [12]: 14.5 mm; Basicity, neutrality or acidity [13]: Acid
